Test results from ChEMBL document CHEMBL1201862, “PubChem BioAssay data set” (2004).
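In this assay, cells in 96-well plates receive the compound at five concentrations for 48 hours. Endpoints are linearly interpolated between the surrounding concentrations. GI50 marks 50% less growth.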 Calls of active or inactive are those of the source. Cut-off read from the data, not from the text of the source: active = GI50 up to about 1.1 µM and inactive = higher.

Experiments:
Assay in all cases: DTP human tumour cell line panel, 48 h
KM12 = tested on: KM12
SNB-19 = tested on: SNB-19
SF-268 = tested on: SF-268
SF-295 = tested on: SF-295
HCT-15 = tested on: HCT-15
NCI-H460 = tested on: NCI-H460
UACC-257 = tested on: UACC-257
SK-MEL-5 = tested on: SK-MEL-5
MDA-N = tested on: MDA-N
IGROV-1 = tested on: IGROV-1
HOP-92 = tested on: HOP-92
Malme-3M = tested on: Malme-3M
A498 = tested on: A498
CAKI-1 = tested on: CAKI-1
SK-OV-3 = tested on: SK-OV-3
OVCAR-3 = tested on: OVCAR-3
SW-620 = tested on: SW-620
TK-10 = tested on: TK-10
EKVX = tested on: EKVX
M19-MEL = tested on: M19-MEL

Compound | GI50 (KM12) | GI50 (SNB-19) | GI50 (SF-268) | GI50 (SF-295) | GI50 (HCT-15) | GI50 (NCI-H460) | GI50 (UACC-257) | GI50 (SK-MEL-5) | GI50 (MDA-N) | GI50 (IGROV-1) | GI50 (HOP-92) | GI50 (Malme-3M) | GI50 (A498) | GI50 (CAKI-1) | GI50 (SK-OV-3) | GI50 (OVCAR-3) | GI50 (SW-620) | GI50 (TK-10) | GI50 (EKVX) | GI50 (M19-MEL)
CN1CCc2cc(N)cc3c2C1Cc1ccc2c(c1-3)OCO2 (stereo not given) | 13.5 µM (inactive) | 61.8 µM (inactive) | 33.5 µM (inactive) | 31.9 µM (inactive) | 32.3 µM | 28.9 µM (inactive) | 22.5 µM (inactive) | 20.4 µM (inactive) | 19.2 µM (inactive) | 20.5 µM (inactive) | 17.7 µM (inactive) | 20.9 µM (inactive) | 49.9 µM (inactive) | 41.5 µM (inactive) | 44.9 µM (inactive) | 27.1 µM (inactive) | 31 µM (inactive) | 45.8 µM (inactive) | 50.9 µM (inactive) | 
CCCCCC(/C=C/[C@@H]1[C@@H](C(O)CCCCCC(=O)OC)C(=O)C[C@H]1O[Si](C)(C)C(C)(C)C)OCOCCOC (stereo not given in full) | 6.62 µM (inactive) | 15.3 µM (inactive) | 14 µM (inactive) | 17.9 µM (inactive) | 7.98 µM | 29.7 µM (inactive) | 7.85 µM (inactive) | 14.5 µM (inactive) | 8.51 µM (inactive) | 6.28 µM (inactive) | 21 µM (inactive) | 16.8 µM (inactive) | 20 µM (inactive) | 17.2 µM (inactive) | 18.8 µM (inactive) | 14.9 µM (inactive) | 5.12 µM (inactive) | 16.6 µM (inactive) | 18.8 µM (inactive) | 
O=C1CC(Cl)c2c(Cl)sc(Cl)c21 (stereo not given) | 1.67 µM (inactive) | 11.4 µM (inactive) | 1.79 µM (inactive) | 15.4 µM (inactive) | 2.02 µM | 13.8 µM (inactive) | 2.96 µM (inactive) | 13.2 µM (inactive) | 2.32 µM (inactive) | 1.99 µM (inactive) | 1.74 µM (inactive) | 1.42 µM (inactive) | 12.2 µM (inactive) | 1.76 µM (inactive) | 18.6 µM (inactive) | 2.31 µM (inactive) | 1.75 µM (inactive) | 2.36 µM (inactive) | 3.94 µM (inactive) | 
COCOc1ccc(Cn2c(=O)n(C)c(=O)c3c2ncn3C)cc1[N+](=O)[O-] | > 100 µM (inactive) | > 100 µM (inactive) | > 100 µM (inactive) | 25.7 µM (inactive) | > 100 µM | > 100 µM (inactive) | 57.5 µM (inactive) |  |  | > 100 µM (inactive) |  | > 100 µM (inactive) |  |  | 49.3 µM (inactive) | > 100 µM (inactive) | > 100 µM (inactive) | > 100 µM (inactive) | 54.7 µM (inactive) | > 100 µM (inactive)
O=c1[nH]c2cc3[nH]c4ncccc4c(=O)c3cc2[nH]1 | > 10 µM (inactive) | > 10 µM (inactive) | > 10 µM (inactive) | > 10 µM (inactive) | > 10 µM | > 10 µM (inactive) | > 10 µM (inactive) | > 10 µM (inactive) | > 10 µM (inactive) | > 10 µM (inactive) | > 10 µM (inactive) | > 10 µM (inactive) | > 10 µM (inactive) | > 10 µM (inactive) | > 10 µM (inactive) | > 10 µM (inactive) | > 10 µM (inactive) | > 10 µM (inactive) | > 10 µM (inactive) | 
CC(=O)/C=C\C1CC2C=CC1C2 (stereo not given) | 32.3 µM (inactive) | 53.5 µM (inactive) | 25.8 µM (inactive) | 31 µM (inactive) | 22.5 µM | 44.1 µM (inactive) |  | 57.9 µM (inactive) |  | 81.3 µM (inactive) | 29.2 µM (inactive) | 27.2 µM (inactive) |  |  | > 100 µM (inactive) | 37.8 µM (inactive) | 33.7 µM (inactive) | 86.5 µM (inactive) | 64.9 µM (inactive) | 55.3 µM (inactive)
O=C(CSc1nnc(-c2ccc(/N=C\c3ccc(Cl)cc3)cc2)o1)Nc1ccccc1 | > 10 µM (inactive) | 53 µM (inactive) | 35.7 µM (inactive) | 94.4 µM (inactive) | 68.2 µM | > 100 µM (inactive) | > 100 µM (inactive) | 89.9 µM (inactive) |  |  |  | > 100 µM (inactive) |  |  | > 100 µM (inactive) |  | 44.9 µM (inactive) | > 100 µM (inactive) | > 100 µM (inactive) | 36.6 µM (inactive)
O=C1c2cccnc2S(=O)(=O)N1c1ccc([N+](=O)[O-])cc1 | > 100 µM (inactive) | > 100 µM (inactive) | > 100 µM (inactive) | > 100 µM (inactive) | > 100 µM | > 100 µM (inactive) | > 100 µM (inactive) | > 100 µM (inactive) | > 100 µM (inactive) | > 100 µM (inactive) | > 100 µM (inactive) | 51.8 µM (inactive) | > 100 µM (inactive) | > 100 µM (inactive) | > 100 µM (inactive) | > 100 µM (inactive) | > 100 µM (inactive) | > 100 µM (inactive) | > 100 µM (inactive) | 
